From patent US11596620B2, “Formulations with reduced oxidation” (Genentech, Inc., priority 2013, dated 2023)
Entries after “also recorded” stand apart in the source; their conditions may differ.

What was measured:
[1] = Photosensitivity screening assay (H2O2 by Amplex Ultra Red after light exposure); format: physicochemical; conditions: for (H2O2 produced by Compound)/(H2O2 produced by L-Trp) / H2O2 produced compared to L-Trp, in words: 1 mM in 20 mM histidine acetate pH 5.5, four hours of light at 250 W/m^2; for H2O2 produced in comparison to L-Trp: 1 mM, four hours of light at 250 W/m^2, times more H2O2 than L-Trp
Procedure: As a screening tool, antioxidant candidates were exposed to light for four hours at 250 W/m^2 and the resulting H2O2 formation was quantified by the Amplexassay. Specifically, antioxidants were prepared to 1 mM in 20 mM histidine acetate buffer at pH 5.5. The 1 mM antioxidant solutions were aliquoted into glass vials (2 mL/glass vial) and exposed to four hours of light at 250 W/m^2 in an Atlas SunTest CPS+ Xenon Test Instrument (Chicago, Ill.). Total UV dose was 90 watt-hours/square meter and total visible dose was 0.22 million lux hours over the 4-hour period. Control vials were wrapped in aluminum foil and treated similarly. The amount of hydrogen peroxide generated after exposure to light was measured using the Amplex® Ultra Red Assay (Invitrogen, Carlsbad, Calif.) following the manufacturer's recommended procedure. On addition of horseradish peroxidase (HRP), the dye reacted 1:1 stoichiometrically with H2O2, resulting in the production of fluorescent oxidation product resorufin. In this study, fluorescence readings were obtained using a Spectra Max M2 Micro-plate Reader (Molecular Devices, Sunnyvale, Calif.) with excitation and emission set at 560 nm and 590 nm, respectively. Final H2O2 concentrations were determined using a standard curve ranging from 0 μm to 20 μm.

[2] = Cyclic voltammetry (CV) screening assay, oxidation potential; format: physicochemical
Procedure: The oxidation/reduction characteristics of the compounds were investigated. Several compounds, including L-Trp and derivatives, were evaluated for the protection of Trp oxidation in proteins using cyclic voltammetry (CV) and rank ordered based on their oxidation potentials (Table 2). Specifically, the candidate antioxidants were dissolved in deionized water and then added to a 0.2 M lithium perchlorate electrolyte solution. […] Solutions were scanned from −0.10 V to +1.50 V at a scan rate of either 100 or 500 mV/sec. The analytical cell was purged for four minutes with nitrogen before scanning of each antioxidant solution. The input was a linear scan of the potential of a working electrode, and the output was measurement of the resulting current. […] Redox reactions were characterized by sharp increases or decreases in current (peaks). The potential at which an oxidation reaction occurred was referred to as the anodic peak potential (or oxidation potential), and the potential at which a reduction occurred was referred to as is the cathodic peak (or reduction) potential.

[3] = anodic peak potential, glassy carbon working electrode, 0.2M lithium perchlorate
[4] = cyclic voltammetry, 0.2 M lithium perchlorate

SMILES | (H2O2 produced by Compound)/(H2O2 produced by L-Trp) [1] | H2O2 produced compared to L-Trp, in words [1] | Oxidation Potential [2, 3] | Oxidation potential relative to L-Trp, in words ([2]; cyclic voltammetry) | Oxidation Potential [2, 4] | H2O2 produced compared to L-Trp, in words ([1]; listed as tryptamine) | H2O2 produced in comparison to L-Trp [1]
O=C(O)c1cc2cccc(O)c2[nH]1 [7-Hydroxyindole-2-Carboxylic Acid] | 0.15 | – | – | – | – | – | –
COc1ccc2[nH]cc(CCNC(C)=O)c2c1 [Melatonin (N-Acetyl-5-Methoxytryptamine), N-Acetyl-5-Methoxytryptamine] | 0.28 | less than a third | 0.730 V vs Ag/AgCl | – | – | – | –
N[C@@H](Cc1c[nH]c2ccc(F)cc12)C(=O)O [5-Fluoro-L-Trp, 5-fluoro-L-tryptophan] | 0.71 | – | 0.965 V vs Ag/AgCl | higher oxidation potential than L-Trp | – | – | –
Oc1cccc2[nH]ccc12 [4-Hydroxyindole] | 0.00 | – | – | – | – | – | –
O=C(O)Cc1c[nH]c2ccc(O)cc12 [5-Hydroxyindole-3-Acetic Acid] | 0.11 | – | 0.535 V vs Ag/AgCl | – | – | – | –
COc1ccc2[nH]cc(CC(N)C(=O)O)c2c1 (racemic) [5-Methoxy-DL-Trp, 5-methoxy-DL-tryptophan] | 1.05 | – | 0.890 V vs Ag/AgCl | – | 0.890 V vs Ag/AgCl | – | –
NCCc1c[nH]c2ccccc12 [Tryptamine] | 0.53 | about half as much H2O2 | 1.010 V vs Ag/AgCl | higher oxidation potential than L-Trp | – | two times less | –
Nc1ccccc1C(=O)O [Anthranilic Acid] | 2.50 | twice as much H2O2 | – | – | – | – | –
Nc1ccc(O)cc1C(=O)O [5-Hydroxyanthranilic Acid] | 0.44 | half as much H2O2 | – | – | – | – | –
NC(Cc1c[nH]c2ccc([N+](=O)[O-])cc12)C(=O)O (racemic) [5-nitro-DL-tryptophan] | – | – | 1.055 V vs Ag/AgCl | higher oxidation potential than L-Trp | – | – | –
Cc1ncc(CO)c(CO)c1O [Pyridoxine] | 5.16 | – | – | – | – | – | 5 times
Nc1ccccc1C(=O)C[C@H](N)C(=O)O [L-Kynurenine, L-kynurenine] | 0.20 | about one fifth | 1.040 V vs Ag/AgCl | higher oxidation potential than L-Trp | – | – | –
CC(=O)N[C@@H](Cc1c[nH]c2ccccc12)C(=O)O [N-Acetyl-L-Trp, N-acetyl-L-tryptophan] | 0.31 | – | 0.875 V vs Ag/AgCl | – | – | – | –
O=C(O)Cc1c[nH]c2ccccc12 [Indole-3-Acetic Acid] | 2.40 | twice as much H2O2; also recorded: two times more H2O2 | 0.948 V vs Ag/AgCl | higher oxidation potential than L-Trp | – | – | –
Nc1ccc2[nH]cc(CC(N)C(=O)O)c2c1 (racemic) [5-Amino-DL-Trp, 5-amino-DL-tryptophan] | 0.29 | – | 0.410 V vs Ag/AgCl | – | 0.410 V vs Ag/AgCl | – | –
O=C(O)c1cc(O)ccc1O [5-Hydroxysalicylic Acid] | 0.84 | behaved like L-Trp | – | – | – | – | –
c1ccc2[nH]ccc2c1 [Indole] | 0.95 | behaved similarly to L-Trp | – | significantly lower oxidation potential than L-Trp | – | – | –
Cc1c(C)c2c(c(C)c1O)CCC(C)(C(=O)O)O2 (stereo not shown) [Trolox] | 122.75 | – | – | – | – | – | 123 times
